Entries after “also recorded” stand apart in the source; their conditions may differ.
Assays:
[1] = system: human lung carcinoma A549 cells; test: MTT assay, A549 cells; type: cell-based
Description: (§6) Solutions of the platinum compounds were freshly prepared in sterile PBS before use and their concentrations quantitated by atomic absorption spectroscopy. Cells were seeded on a 96-well plate (1200 cells per well for cancer cells and 1800 cells per well for the normal lung fibroblasts) in 100 μL RPMI or DMEM media, and incubated for 24 h. […] The cells were then treated with 20 μL of 3-(4,5-dimethylthiazol-2-yl)-2,5-diphenyltetrazolium bromide (MTT) (5 mg/mL in PBS) and incubated for 4 h. The medium was removed, 100 μL of DMSO was added to the cells, and the absorbance of the purple formazan was recorded at 560 nm using a BioTek Synergy HT multi-detection microplate plate reader. Each condition was performed in triplicate and three independent experiments were carried out for each cell line.
Solutions of the platinum agents were freshly prepared in sterile PBS before use and the platinum content was quantitated by AAS. Cells were seeded on 96 well plates (1200 cells per well) in 100 μL RPMI or DMEM media\ and incubated for 24 hours. […] The cells were then treated with 20 μL of 3-(4,5-dimethylthiazol-2-yl)-2,5-diphenyltetrazolium bromide (MTT) (5 mg/mL in PBS) and incubated for 4 h. The medium was removed, 100 μL of DMSO were added to the cells, and the absorbance of the purple formazan was recorded at 570 nm using a BioTek Synergy HT multi-detection microplate plate reader. For each cell line, three independent experiments were carried out in triplicate.

[2] = system: human bone sarcoma U2OS cells; test: MTT assay, U2OS cells; type: cell-based; conditions: 72-h incubation
Description: Human colon carcinoma HT29, human breast carcinoma MCF7, human bone sarcoma U2OS, human prostate carcinoma PC3, and human cervix carcinoma HeLa cells were obtained from the ATCC. A2780/CP70 cisplatin-resistant human ovarian cancer cells were kindly provided by Dr. Stephen B. Howell (Moores UCSD Cancer Center) and the human lung carcinoma cell lines A549 and normal lung fibroblast MRC5 by David E. Root (Whitehead Institute for Biomedical Research). Cells were incubated at 37° C. in 5% CO2 and grown in RPMI (HT29, A2780/CP70, and PC3) or DMEM (A549, MRC5, HeLa, MCF7, and U2OS) medium supplemented with 10% fetal bovine serum and 1% penicillin/streptomycin. Cells were passed every 3 to 4 days and restarted from a frozen stock upon reaching pass number 20.
Solutions of the platinum compounds were freshly prepared in sterile PBS before use and their concentrations quantitated by atomic absorption spectroscopy. […] The cells were then treated with 20 μL of 3-(4,5-dimethylthiazol-2-yl)-2,5-diphenyltetrazolium bromide (MTT) (5 mg/mL in PBS) and incubated for 4 h. The medium was removed, 100 μL of DMSO was added to the cells, and the absorbance of the purple formazan was recorded at 560 nm using a BioTek Synergy HT multi-detection microplate plate reader. Each condition was performed in triplicate and three independent experiments were carried out for each cell line. […]

NTera2 (Testis) cells = test: MTT assay, NTera2 cells; type: cell-based, human; conditions: 72-h incubation, Table 3
Description: as §6

[3] = system: normal lung fibroblast MRC5; test: MTT assay, MRC5 cells; type: cell-based, human; conditions: MRC5, 72-h incubation, Table 5
Description: as §6

[4] = system: human colon carcinoma HT29 cells; test: MTT assay, HT29 cells; type: cell-based; conditions: HT29, 72-h incubation, Table 5
Description: Solutions of the platinum compounds were freshly prepared in sterile PBS before use and their concentrations quantitated by atomic absorption spectroscopy. Cells were seeded on a 96-well plate (1200 cells per well for cancer cells and 1800 cells per well for the normal lung fibroblasts) in 100 μL RPMI or DMEM media, and incubated for 24 h. […] The medium was removed, 100 μL of DMSO was added to the cells, and the absorbance of the purple formazan was recorded at 560 nm using a BioTek Synergy HT multi-detection microplate plate reader. […]

[5] = system: human cervix carcinoma HeLa cells; test: MTT assay, HeLa cells; type: cell-based; conditions: 72-h incubation, Table 5
Description: as §6
Solutions of the platinum agents were freshly prepared in sterile PBS before use and the platinum content was quantitated by AAS. […] The medium was removed, 100 μL of DMSO were added to the cells, and the absorbance of the purple formazan was recorded at 570 nm using a BioTek Synergy HT multi-detection microplate plate reader. […]

calf thymus DNA = test: Ethidium bromide DNA-binding competition, Scatchard analysis; set-up: key: competitive (type A); non-competitive (type D); both (type B); No inhibition of ethidium binding is labeled as type C
Description: Using this approach, it is possible to determine whether the inhibition of ethidium binding is competitive (type A), non-competitive (type D), or both (type B). No inhibition of ethidium binding is labeled as type C.

[6] = system: GLuc expression from transfected HT29 cells; test: GLuc transcription assay, globally platinated probes, HT29; type: cell-based, human; conditions: for transcription inhibition, in words: globally platinated probes; for transcription level (normalized against unplatinated plasmid): Pt/DNA ratio of […] for phenanthriplatin
Description: (§1) Transfection of transcription probes into A549 and HT29 cells with the pGLuc plasmid was carried out using liposomal transfecting agents. Determination of expression levels was tested by Luciferase assays monitored by a luminometer (J. Am. Chem. Soc. 2010, 132, 7429-7435). A549 cells were plated in 96-well plates at 2,000 cells/well and HT29 cells were plated in 96-well plates at 6,000 cells/well. After 48 h incubation (at ˜30% confluence), cells were transfected with 50 ng of platinated plasmids in 25 μL Opti-MEM and 0.125 μL Lipofectamine 2000, and subsequently 50 μL of antibiotics-free DMEM supplemented with 10% FBS. After 2 h, the cells were washed with medium and 100 μL of fresh medium was added. The experiment was carried out in quadruplicate.
(§2) GLuc activity was monitored using a luminescence plate reader (Synergy 2, BioTek, Winooski, Vt., USA). A 10 μL volume of medium at different time points (12, 24, 36, 48, 60 h) was transferred into opaque white 96-well plates, and 25 μL of GLuc assay solution (10 μM colelenterazine (NanoLight Technologies, Pinetop, Ariz., USA) in 2.5 mM acidified methanol (100 mM HCl), buffer (10 mM Tris-HCl pH 7.8, 1 mM EDTA, 0.6 M NaCl)) was added by the automatic injector of the instrument.
(§3) Investigations of the cellular processing of Pt-DNA lesions are important for understanding the mechanism of action of platinum drugs. One of the major consequences of Pt-DNA damage is transcription inhibition, the extent of which dictates the efficacy of Pt drugs.
(§4) A549 or HT29 cells were transfected using these platinated transcription probes for 2 h at 37° C. and cell media were collected at 12, 24, 36, 48, and 60 h after the transfection. The levels of GLuc expression in cells were measured using a luminometer. The intensity values were normalized against controls (unplatinated plasmid). Transcription profiles were obtained by plotting normalized levels of GLuc expression against platination levels (Pt/plasmid ratio) at five different time points (FIG. 5). […] In FIG. 5: transcription profiles of globally platinated probes in A549 (top) and HT29 (bottom) cells.
(§5) In another embodiment, A549 or HT29 cells were transfected using the platinated transcription probes, and transcription levels were investigated by determining GLuc expression as measured by […] following addition of coelenterazine as a substrate for the exported enzyme. The emission intensities were normalized against unplatinated plasmids as a control. Transcription profiles were obtained by plotting normalized levels of GLuc expression against platination levels (Pt/plasmid ratio) at five different time points. […] An increase in D0 value at different time points represents restoration of transcription.

[7] = Aquation in D2O by 1H NMR; conditions: 37° C.
Description: The 1-D ^1H NMR kinetic studies were performed in duplicate as a standard time-arrayed experiment using a variable delayed list. Incremented 1-D spectra were processed in exactly the same way and signals of aromatic amine ligands from platinum compounds were integrated. The relative concentrations of the platinum compound at each time point were calculated from peak integrals. […] Reactions of platinum compounds with 5′-dGMP were performed in NMR tubes containing 2 mM of the platinum compounds and 32 mM (16 equiv) of 5′-dGMP in 10 mM PBS buffer, D2O, pH*7.4 at 37° C.

pGLuc plasmid = test: Global platination of pGLuc plasmid; conditions: for level of DNA-bound compound per amount added (rb vs. rf): 16 h, 24 mM HEPES pH 7.4, 10 mM NaCl; for level of DNA-bound compound per amount added (rb vs. rf) / rb (bound Pt/nucleotide): 37° C.
Description: The resulting mixtures were dialyzed (molecular weight cut-off 3.5 kDa) against ddH2O overnight at 4° C. with five changes of ddH2O. The rb values (bound Pt/nucleotide) were determined by UV/Vis and atomic absorption spectroscopy.
In one embodiment, the ratio of bound platinum per plasmid was determined by measuring the Pt concentration by atomic absorption spectroscopy and the DNA concentration by UV/Vis spectroscopy.

[8] = system: GLuc expression from transfected A549 cells; test: GLuc transcription assay, globally platinated probes, A549; type: cell-based, human; conditions: for transcription inhibition, in words: globally platinated probes; for transcription level (normalized against unplatinated plasmid): Pt/DNA ratio of […] for phenanthriplatin
Description: as §1, §2, §3, §4, §5

[9] = 16 equiv 5′-dGMP, 37° C., PBS pH 7.4
Description: The 1-D ^1H NMR kinetic studies were performed in duplicate as a standard time-arrayed experiment using a variable delayed list. Incremented 1-D spectra were processed in exactly the same way and signals of aromatic amine ligands from platinum compounds were integrated. The relative concentrations of the platinum compound at each time point were calculated from peak integrals. […] Reactions of platinum compounds with 5′-dGMP were performed in NMR tubes containing 2 mM of the platinum compounds and 32 mM (16 equiv) of 5′-dGMP in 10 mM PBS buffer, D2O, pH*7.4 at 37° C. Deuterated 3-(trimethylsilyl)propionic acid sodium salt (TMS-PFASS) was used as an internal standard. The pH* values are the measured pH values without correction for the effect of deuterium on the electrode.

[10] = equimolar N-AcMet, 37° C.
Description: NMR spectra were collected on a Varian 500 spectrometer equipped with a triple-resonance broadband inverse probe and a variable temperature unit. The 1-D ^1H NMR kinetic studies were performed in duplicate as a standard time-arrayed experiment using a variable delayed list. Incremented 1-D spectra were processed in exactly the same way and signals of aromatic amine ligands from platinum compounds were integrated. The relative concentrations of the platinum compound at each time point were calculated from peak integrals. […] Reactions of platinum compounds with N-AcMet were performed in NMR tubes containing 2 mM of the Pt complex and 2 mM (1 equiv) of N-AcMet in 10 mM PBS buffer, D2O, pH*7.4 at 37° C. […] Deuterated 3-(trimethylsilyl)propionic acid sodium salt (TMS-PFASS) was used as an internal standard. The pH* values are the measured pH values without correction for the effect of deuterium on the electrode.
(pH*=refers to a pH measurement uncorrected for the effect of deuterium on the electrode.)

O=C1[O][Pt]2([NH][C@@H]3CCCC[C@H]3[NH]2)[O]C1=O [oxaliplatin]
IC50 ([1]; A549 (Lung), 72-h incubation, Table 3): 8.79 ± 0.26 µM | IC50 ([2]; U2OS (Bone), Table 3): 6.67 ± 0.59 µM | IC50 (NTera2 (Testis) cells): 1.21 ± 0.06 µM

O=[N+]([O-])[O-].[NH3+][Pt-2]([NH3+])([Cl])[n+]1cccc2ccccc21 (stereo not drawn) [cis-[Pt(NH3)2(quinoline)Cl]NO3]
IC50 [3]: 23.5 ± 1.6 µM | IC50 ([1]; A549, 72-h incubation, Table 5): 6.11 ± 0.68 µM | IC50 ([2]; U2OS, Table 5): 23.5 ± 2.7 µM | IC50 [4]: 38 ± 4.5 µM | IC50 [5]: 12.2 ± 0.8 µM

cis-[Pt(NH3)2(phenanthridine)Cl]NO3 [phenanthriplatin]
type of inhibition of ethidium binding (calf thymus DNA; 12-h incubation period): D | type of inhibition of ethidium binding (calf thymus DNA; 1 min incubation period): C | transcription inhibition, in words [6]: as strongly as cisplatin; also recorded: as efficiently as cisplatin | time to complete aquation (equilibrium with aqua analogue) [7]: ≤ 1 h | level of DNA-bound compound per amount added (rb vs. rf) (pGLuc plasmid): almost identical to that of cisplatin | rb (bound Pt/nucleotide) (pGLuc plasmid; rf 0.0008, 16 h): 0.0015 | rb (bound Pt/nucleotide) (pGLuc plasmid; rf 0.0019, 16 h): 0.0019 | rb (bound Pt/nucleotide) (pGLuc plasmid; rf 0.0029, 16 h): 0.0030 | rb (bound Pt/nucleotide) (pGLuc plasmid; rf 0.0060, 16 h): 0.0053 | transcription inhibition, in words [8]: as strongly as cisplatin; also recorded: as efficiently as cisplatin

pyriplatin
type of inhibition of ethidium binding (calf thymus DNA; 12-h incubation period): C | type of inhibition of ethidium binding (calf thymus DNA; 1 min incubation period): C | IC50 [3]: 82.1 µM | transcription level (normalized against unplatinated plasmid) ([6]; 12 h): 55.3% | transcription level (normalized against unplatinated plasmid) ([6]; 60 h): 75.2% | transcription inhibition, in words [6]: less efficient than that of either cisplatin or phenanthriplatin by a factor of two | time to complete aquation (equilibrium with aqua analogue) [7]: ≤ 1 h | level of DNA-bound compound per amount added (rb vs. rf) (pGLuc plasmid): almost identical to that of cisplatin | Pt per plasmid (pGLuc plasmid; rf 0.0016): 13.33 Pt per plasmid | rb (bound Pt/nucleotide) (pGLuc plasmid; rf 0.0016, 16 h): 0.0017 | Pt per plasmid (pGLuc plasmid; rf 0.004): 31.19 Pt per plasmid | rb (bound Pt/nucleotide) (pGLuc plasmid; rf 0.004, 16 h): 0.0039 | Pt per plasmid (pGLuc plasmid; rf 0.0076): 57.96 Pt per plasmid | rb (bound Pt/nucleotide) (pGLuc plasmid; rf 0.0076, 16 h): 0.0073 | Pt per plasmid (pGLuc plasmid; rf 0.015): 117.31 Pt per plasmid | rb (bound Pt/nucleotide) (pGLuc plasmid; rf 0.015, 16 h): 0.0015 | IC50 ([1]; A549, 72-h incubation, Table 5): 62.1 ± 2.3 µM | pseudo-first order rate constant, reaction with 5′-dGMP [9]: 0.29 h⁻¹ | reaction with N-AcMet more rapid than that for phenanthriplatin [10]: > 10 fold | second-order rate constant, reaction with N-AcMet [10]: 0.156 M⁻¹ s⁻¹ | transcription level (normalized against unplatinated plasmid) ([8]; 12 h): 55.2% | transcription level (normalized against unplatinated plasmid) ([8]; 60 h): 66.8% | transcription inhibition, in words [8]: less efficient than that of either cisplatin or phenanthriplatin by a factor of two
